Test results from patent US20240166658A1, “PORPHYRIN DERIVATIVES AND USES THEREOF” (University of Tasmania, priority 2021, published 2024).

What was measured:
[1] = UV-Vis host-guest titration, association constant; type: binding; conditions: host (9) in dichloromethane; triplicate, TBA salt and acid; Bindfit
Protocol: (§1) Path length of the quartz cell was 1 cm. For UV-vis titrations, a stock solution of host was prepared (2.2×10^−3 M) in dichloromethane (DCM) and serially diluted to the required concentrations. Working solutions of tetrabutylammonium (TBA) anion salts or guest molecules were prepared in the same manner Host−guest titrations used solutions of guest prepared in the working concentration of host solution, according to the procedure of Thordarson, 2011.
(§2) UV-vis spectroscopic host−guest titrations were performed in accordance with the methodologies of Thordarson, 2011. Solutions of host in dichloromethane were prepared. Solutions of guest were then prepared in the host solution. Aliquots of guest in host solution were added to host solution and sequentially analysed until a known molar equivalent of guest was added. The amount of guest added per aliquot was ascertained by a preliminary screening experiment; strong association constants required smaller molar equivalents so more information could be collected. By way of example, host (9) responded to 0.1 molar equivalent of PFBA strongly, so an addition of 1 molar equivalent of PFBA would result in a loss of information. The inverse is true for weaker binding interactions. […]
(§3) A host solution of host (9) in dichloromethane was monitored using UV-Vis analysis as 0.5-10 equivalents of each PFAS was added. […]

[2] = UV-Vis host-guest titration, association constant; type: binding; conditions: host (9) in dichloromethane; triplicate, TBA salt and acid; Bindfit; remark: listed apart in the source
Protocol: as §1, §2, §3

[3] = UV-Vis host-guest titration, association constant; type: binding; conditions: host (9) in dichloromethane; triplicate, TBA salt and acid; Bindfit; remark: listed apart in the source
Protocol: as §1, §2, §3

[4] = Anion selectivity screening with TBA salts, UV-Vis; type: binding; conditions: dichloromethane
Protocol: The selectivity of the host (9) for anions was investigated visually and spectroscopically. The TBA salts of anions commonly found in significant concentrations in water samples were added in 10 molar equivalents to solutions of host to give preliminary indications of host−guest interactions prior to more extensive investigation. Although not an accurate proxy of real-world matrix concentrations, it was thought that the binding of any anions would indicate any affinity for other anions.

[5] = Non-fluorinated and neutral fluorinated guest molecules, UV-Vis; type: binding; conditions: 10 molar equivalents, dichloromethane; immediately and 24 hours later
Protocol: The binding interaction was probed by combining the host (9) with non-fluorinated and neutral fluorinated guest molecules. Solutions of host (9) in dichloromethane were combined with 10 molar equivalents of tetrafluorobenzene and nonanoic acid. Solutions were analysed using UV-Vis spectroscopy (immediately and 24 hours later) to check for any indication of binding.

Soil tests = conditions: 5 g dried soil, 20 mL host in dichloromethane, no pre-treatment or pre-concentration
Protocol: Soil was taken front the top 15 cm of the garden bed outside the Chemistry Building at the University of Tasmania and dried in the oven at 40° C. for approximately 60 hours. This soil was then spiked with 10 ppm PFOA: Two 50 g dried soil samples were transferred into two separate 1 L polypropylene containers. One sample was combined with a dichloromethane-PFOA solution (200 mL of 6×10^−6 M PFOA in DCM) and the other was combined with only dichloromethane (200 mL). The solutions were left to evaporate. 5 g of the resulting samples was transferred to high density polyethylene tubes.
Combinations of sensor molecule (9) in different organic solvents were added to spiked and control samples, and the results were compared. Water was also added to see if a biphasic system was beneficial for extraction from soil. • A=20 mL dichloromethane+medium chain sensor (9) • B=10 mL of water-->20 mL dichloromethane+medium chain sensor (9) • C=20 mL ethyl acetate+medium chain sensor (9) • D=20 mL toluene+medium chain sensor (9)
Dried soil samples (5 g) were also combined with 20 mL of host (9) in dichloromethane and shaken to show a colour change observable in the solvent.

[6] = GenX, water and HDPP tube experiment (biphasic)
Protocol: A solution of medium chain amide host (2.04×10^−5 M) in dichloromethane was added to an aqueous solution of GenX™ (5 ppm, 1.51×10^−5 M 50 mL) in a volumetric flask. […] Both phases were then transferred via pouring to a HDPP tube. The green colour persisted initially but began to reduce with time.

[7] = Colorimetric matching of mixed PFCA samples, high concentration
From the text: The present inventors investigated the colorimetric responses for host (12) with “high” concentrations of PFCA (where [host]<[guest]), and “low” concentrations of PFCA (where [host]>[guest]). Generally, RGB response values will increase with increasing concentrations of PFCA until the host has been saturated; beyond the saturation limit, RGB response values are similar. When there was an excess of guest, the response values could only be used as a threshold indication for PFCA concentrations.
RGB response curves were established by combining solutions of host (12) (5.01×10^−6 M) with solutions of PFOA (0-16 ppm, 3.86×10^−5 M) in dichloromethane. […] Thus, when establishing a calibration curve, the relative proportion of free host to host−PFCA complex limiting the variability of colour response must be considered for the application.
For the “high” PFCA concentration experiment, the PFOA generated calibration curve (y=0.0401 ln(x)+0.2366, R^2=0.9677) (FIG. 17) begins to level out at ca. 2 ppm. Above that concentration, the RGB response values are difficult to differentiate.

| Structure (SMILES) | K value (averaged association constant Ka) [1] | K value (averaged association constant Ka) [2] | K value (averaged association constant Ka) [3] | shift in the Q band ([4]; 10 molar equivalents of TBA salt) [nm] | UV-Vis change after addition of anion ([4]; 10 molar equivalents of TBA salts) | colorimetric response [5] | colour change with soil sample (Soil tests) | colour of host solution after transfer to HDPP tube ([6]; after 24 hours) | colour of host solution ([6]; host 2.04×10^−5 M in dichloromethane added to aqueous GenX 5 ppm) | ΔE ([7]; 15 vs 3 ppm PFCA sample) | ΔE ([7]; 15 vs 12 ppm PFCA sample) | [PFCA]predicted from PFOA regression ([7]; sample measured 0.20 ppm) [ppm] |
| --- | --- | --- | --- | --- | --- | --- | --- | --- | --- | --- | --- | --- |
| O=C(Nc1ccccc1-c1c2nc(c(-c3ccccc3NC(=O)C(F)(F)C(F)(F)C(F)(F)C(F)(F)C(F)(F)C(F)(F)C(F)(F)F)c3ccc([nH]3)c(-c3ccccc3NC(=O)C(F)(F)C(F)(F)C(F)(F)C(F)(F)C(F)(F)C(F)(F)C(F)(F)F)c3nc(c(-c4ccccc4NC(=O)C(F)(F)C(F)(F)C(F)(F)C(F)(F)C(F)(F)C(F)(F)C(F)(F)F)c4ccc1[nH]4)C=C3)C=C2)C(F)(F)C(F)(F)C(F)(F)C(F)(F)C(F)(F)C(F)(F)C(F)(F)F [host (9), α,α,α,α-5,10,15,20-tetrakis(2-(pentadecafluorooctanoylamino)phenyl)porphyrin] | 20459 | 15272 | 6585 | ~32 | no significant change | no colorimetric response | discernible by the naked eye | significant reduction in the intensity of the green colour | immediately became a vibrant green colour | – | – | – |
| O=C(Nc1ccccc1-c1c2nc(c(-c3ccccc3NC(=O)C(F)(F)C(F)(F)C(F)(F)C(F)(F)C(F)(F)C(F)(F)C(F)(F)C(F)(F)C(F)(F)C(F)(F)C(F)(F)F)c3ccc([nH]3)c(-c3ccccc3NC(=O)C(F)(F)C(F)(F)C(F)(F)C(F)(F)C(F)(F)C(F)(F)C(F)(F)C(F)(F)C(F)(F)C(F)(F)C(F)(F)F)c3nc(c(-c4ccccc4NC(=O)C(F)(F)C(F)(F)C(F)(F)C(F)(F)C(F)(F)C(F)(F)C(F)(F)C(F)(F)C(F)(F)C(F)(F)C(F)(F)F)c4ccc1[nH]4)C=C3)C=C2)C(F)(F)C(F)(F)C(F)(F)C(F)(F)C(F)(F)C(F)(F)C(F)(F)C(F)(F)C(F)(F)C(F)(F)C(F)(F)F [host (12), α,α,α,α-5,10,15,20-tetrakis(2-(tricosafluorododecanoylamino)phenyl) porphyrin] | – | – | – | – | – | – | – | – | – | 10 | 2 | 0.18 |
